PMC4518100, “Design and Synthesis of New Benzimidazole and Pyrimidine Derivatives as α-glucosidase Inhibitor” (Iranian Journal of Pharmaceutical Research : IJPR, 2015)

Legend:
yeast α-glucosidase = yeast α-glucosidase (Saccharomyces cerevisiae, UniProt P53341); assay: Yeast α-glucosidase inhibition assay (pNPG substrate, absorbance at 405 nm); assay type: biochemical; settings: qualitative statement
Method: (§1) In this study the inhibition study of both yeast and mammalian α-glucosidase were measured through the earlier reported bioassay method with minor changes ([4]). This test was carried out using the substrate p-nitrophenyl-α-D-glucopyranoside (pNPG), which is hydrolyzed by α-glucosidase to release the product p-nitrophenol, a color agent that can be monitored at 405 nm. For yeast α-glucosidase, mixture contained 20 µL of the enzyme (0.5 unit/mL), 120 µL of 0.1 M phosphate buffer (pH 6.9) and 10 µL of test sample at various concentrations. The mixed solution was incubated in 96-well plates at 37 °C for 15 min. After preincubation the enzymatic reaction was initiated by adding 20 µL of 5 mM pNPG solution in 0.1 M phosphate buffer (pH 6.9) and the reaction mixture was incubated for another 15 min at 37 °C. The reaction was terminated by adding 80 µL of 0.2 M sodium carbonate solution and then absorbance reading was recorded at 405 nm by microplate reader. The reaction system without tested samples was used as control and the system without α-glucosidase was used as blank for correcting the background absorbance. The inhibitory rate of sample on α-glucosidase was calculated by the following formula:
(§2) % Inhibition=control absorbance-sample absorbance/control absorbance×100

[1] = tested on: rat intestinal α-glucosidase; assay: Mammalian α-glucosidase inhibition assay (rat intestinal acetone powder, pNPG substrate); assay type: biochemical; settings: for inhibition of rat intestinal α-glucosidase (in words): qualitative statement; for IC50: rat intestinal α-glucosidase, pNPG, pH 6.9, 37 °C, na: no activity
Method: as §1, §2
The mammalian α-glucosidase were prepared from rat intestinal acetone powder (1 g), which was extracted by 25 mL of 0.1 M phosphate buffer (pH 6.9) containing 5 mM EDTA at ambient temperature. After sonication (10 min) and centrifugation (10000×g, 20 min) the obtained supernatant was dialyzed against […] phosphate buffer (pH 6.9) for 24 h. The final supernatant was used for the assay. The mammalian α-glucosidase inhibition test was carried out in the same manner as that of the yeast α-glucosidase.

Chain of yeast α-glucosidase (P53341 whole entry): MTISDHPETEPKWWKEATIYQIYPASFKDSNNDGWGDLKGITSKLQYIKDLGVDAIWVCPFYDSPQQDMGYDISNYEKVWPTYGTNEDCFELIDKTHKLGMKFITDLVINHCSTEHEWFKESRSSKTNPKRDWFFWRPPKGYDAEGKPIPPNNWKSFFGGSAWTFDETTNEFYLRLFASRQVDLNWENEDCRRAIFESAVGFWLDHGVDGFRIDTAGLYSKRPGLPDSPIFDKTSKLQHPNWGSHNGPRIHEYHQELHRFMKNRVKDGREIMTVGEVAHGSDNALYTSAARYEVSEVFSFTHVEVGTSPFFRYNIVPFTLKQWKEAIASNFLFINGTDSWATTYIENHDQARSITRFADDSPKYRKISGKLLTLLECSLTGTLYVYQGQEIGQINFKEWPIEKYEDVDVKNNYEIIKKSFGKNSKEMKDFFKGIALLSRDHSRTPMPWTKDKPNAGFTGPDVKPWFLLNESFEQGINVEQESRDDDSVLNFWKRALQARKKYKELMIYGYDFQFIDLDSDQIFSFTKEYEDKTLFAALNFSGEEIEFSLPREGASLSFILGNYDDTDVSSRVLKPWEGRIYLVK

Compound | inhibition of yeast α-glucosidase (in words) (yeast α-glucosidase) | inhibition of rat intestinal α-glucosidase (in words) [1] | IC50 [1] [µM]
O=C1c2ccccc2C(=O)N1C(Cc1ccccc1)C1=Nc2cccc3cccc(c23)N1 (stereo not shown) [5c, 2-(1-(1H-perimidin-2-yl)-2-phenylethyl)isoindoline-1,3-dione] | significantly higher inhibitory action than acarbose | significantly higher inhibitory action than acarbose | 35.9 ± 2.3
O=C1c2ccccc2C(=O)N1CC1=Nc2cccc3cccc(c23)N1 [5a, 2-((1H-perimidin-2-yl)methyl)isoindoline-1,3-dione] | did not exert good inhibition activity | did not exert good inhibition activity | 
CCC(C)C(C1=Nc2cccc3cccc(c23)N1)N1C(=O)c2ccccc2C1=O (stereo not shown) [5b, 2-(2-methyl-1-(1H-perimidin-2-yl)butyl)isoindoline-1,3-dione] | did not exert good inhibition activity | did not exert good inhibition activity | 
CC(C)CC(C1=Nc2cccc3cccc(c23)N1)N1C(=O)c2ccccc2C1=O (stereo not shown) [5e, 2-(3-methyl-1-(1H-perimidin-2-yl)butyl)isoindoline-1,3-dione] | did not exert good inhibition activity | did not exert good inhibition activity | 
O=C1c2ccccc2C(=O)N1C(Cc1ccccc1)c1nc2ccccc2[nH]1 (stereo not shown) [4c, 2-(1-(1H-benzo(d)imidazol-2-yl)-2-phenylethyl)isoindoline-1,3-dione] | significantly higher inhibitory action than acarbose | significantly higher inhibitory action than acarbose | 48.5 ± 2.3
O=C1c2ccccc2C(=O)N1C(Cc1ccc(O)cc1)c1nc2ccccc2[nH]1 (stereo not shown) [4d, 2-(1-(1H-benzo(d)imidazol-2-yl)-2-(4-hydroxyphenyl)ethyl)isoindoline-1,3-dione] | significantly higher inhibitory action than acarbose | significantly higher inhibitory action than acarbose | 36.7 ± 2.9
C[C@H]1O[C@H](O[C@H]2[C@H](O)[C@@H](O)[C@@H](O[C@H]3[C@H](O)[C@@H](O)C(O)O[C@@H]3CO)O[C@@H]2CO)[C@H](O)[C@@H](O)[C@@H]1N[C@H]1C=C(CO)[C@@H](O)[C@H](O)[C@H]1O (stereo partly shown) [Acarbose, reference compound] |  |  | 37.5 ± 1.4
O=C1c2ccccc2C(=O)N1C(Cc1ccc(O)cc1)C1=Nc2cccc3cccc(c23)N1 (stereo not shown) [5d, 2-(2-(4-hydroxyphenyl)-1-(1H-perimidin-2-yl)ethyl)isoindoline-1,3-dione] | significantly higher inhibitory action than acarbose | significantly higher inhibitory action than acarbose | 21.8 ± 1.7
